One compound from patent US20230202997A1, “CHROMANOL, QUINONE OR HYDROQUINONE COMPOUNDS FOR TREATMENT OF SEPSIS” (Sulfateq B.V., priority 2020, published 2023) can be followed below.

The structures appear in SMILES notation.

Assay [1] deals with CLP-induced kidney dysfunction. In words: CLP sepsis model, serum urea and NGAL as kidney biomarkers. Format: in vivo. The note with it: CLP mice; SUL-138 5 mg/kg s.c. 2 h before and 8 h after surgery; 24 hours. As to the method: To induce sepsis, the standard cecal ligation and puncture (CLP) model was used. Animals were anesthetized by subcutaneous injection of xylazine/ketamine (100/10 mg/kg), followed by administration of buprenorphine (0.1 mg/kg) as analgesic. After confirmation of anesthesia by lack of response to paw pinch and eye reflex, the abdomen was shaved, cleaned, and de-germed using a povidone-iodine solution before a 1-cm midline incision was made. The cecum was ligated with a 6-0 suture at half the distance between distal pole and the base of the cecum and punctured once with a 21-Gauge needle (‘through-and-through’ from mesenteric toward anti-mesenteric direction) which is an accepted model for ‘mid-grade’ sepsis. A small amount of stool (2-3 mm) was then extruded to ensure wound patency. The cecum was repositioned, thereby taking care not to spill fecal material on the wound edges, followed by closure of the abdomen by running sutures to the abdominal musculature and short interrupted sutures to the skin. Next, 1 ml of saline (warmed, 0.9% NaCl s.c.) was administered to compensate for the expected relative volume depletion due to the onset of sepsis. […]
Furthermore, the amount of NGAL and urea were measured in serum.

Assay [2] concerns HUVEC. In words: LPS-challenged HUVEC respiration (uncoupled state, CCCP). Particulars: 10 ug/ml LPS, SUL-138 added one hour prior to LPS. The class given is cell-based, Human. The procedure:
Human Umbilical Vein Endothelial cells (HUVEC) were obtained from the RuG/UMCG Endothelial Cell Facility. Primary isolates of umbilical cords were mixed and subsequently cultured on HUVEC culture medium, consisted of RPMI 1640 (Lonza, art.nr. BE12-115F) supplemented with 20% heat-inactivated fetal calf serum (ThermoFisher Scientific, art.nr. 10082147), 2 mM 1-glutamine (Life Technologies art.nr. 25030), 5 U/ml heparin (Leo Pharmaceutical Products), 1% Penicillin/Streptomycin (Sigma-Aldrich art.nr. P4333), and 50 μg/ml EC growth factor supplement from (Sigma-Aldrich, art.nr. E2759).
Primary HUVECs were cultured in 75-cm2 tissue culture flasks (Corning, art.nr. 430720U) at 37° C. under 5% CO2/95% air. HUVECs were used for experiments up to passage 8. Experiments were performed in 6-well (Corning art.nr. 3506) or 96-well culture plates (Corning, art.nr. 3596), at 80% confluency. Cells were stimulated with LPS E. coli 0111:B4 (Sigma-Aldrich, art.nr. L2630) in different concentrations. Cells were detached with trypsin (Sigma-Aldrich, art.nr. 25300054). All compounds were dissolved in Hanks Balanced Salt Solution (Lonza, art.nr. 10-527F).
HUVECs were pre-incubated with SUL-138 in an amount of 10 microgram/ml, which was added one hour prior to LPS-stimulation. Such pre-incubation is the standard in in vitro models.

Assay [3] has as its system TNFα mRNA expression. In words: Inhibition of LPS-induced TNFα mRNA expression in HUVEC. The class given is cell-based, Human. Particulars: 10 μM for 30 min, then LPS 24 hours. The procedure:
Human Umbilical Cord Endothelial Cells (HUVEC, Lonza CC-2519) were maintained on 1% gelatin-coated culture flasks in RPMI1640 medium containing 20% fetal bovine serum, 2 mM Glutamine (Sigma-Aldrich), 1% Penicillin-Streptomycin solution (Sigma-Aldrich) and 50 μg/ml Bovine Pituitary Extract (Invitrogen). HUVEC were passaged by trypsinization when the cultures reach a confluency of 70%. For all experiments, HUVEC were seeded at 0.6·10^5 cells/cm^2 and allowed to adhere for 24 hours.
HUVEC and NRK52E cells were pre-incubated with SUL compounds (10 μM) for 30 min and subsequently exposed to LPS for 24 hours under standard culture conditions. Cells were lysed in triZOL reagens (Invitrogen) and total RNA isolated according to manufacturers' instruction. 1 μg total RNA per sample was reverse transcribed using the FirstAid Reverse Transcription Kit (ThermoFisher). Copy-DNA equivalents of 5 ng total RNA were amplified on a ViiA7 Real-time PCR system (ThermoFisher, Waltham, Mass.) using iTaq Universal SYBR Green Supermix (Bio-Rad, Hercules, Calif.) and primers specific for tumor necrosis factor alpha, interleukin 1 beta, interleukin-6 and beta actin as loading control. Amplification was performed for 40 cycles of 95° C. for 30 s, 60° C. for 1 min. Relative mRNA expression was calculated as 2^−(Cq^gene^−Cq^reference^) and normalized to unstimulated control cells (100% inhibition) and vehicle-treated and LPS exposed cells (0% inhibition). The following primers were used: […]

Assay [4] concerns NO production in RAW264.7 macrophages. In words: Macrophage NO production (nitrate in conditioned medium), basal and after LPS. The class given is cell-based, Mouse. The procedure: Mouse macrophage RAW264.7 cells (ATCC #TIB-71) were maintained in DMEM medium containing 10% fetal bovine serum, and 1% Penicillin-Streptomycin solution (Sigma-Aldrich). […] For all experiments, RAW264.7 cells were seeded at 0.5·10^5 cells/cm^2 and allowed to adhere for 24 hours. Cellular production of NO was approximated by measuring nitrate concentrations in culture media using the Measure-IT™ High-Sensitivity Nitrite Assay Kit (#M36051, ThermoFisher) according to manufacturer's instructions. […] Therefore, nitrate concentrations in conditioned media are a good approximate to assess cellular NO production. 50 μl conditioned medium derived from a single 96-wells plate well was used per assay and normalized against protein concentration. All experiments were performed in quadruplicate. LPS induces macrophage NO production by activating iNOS. RAW264.7 macrophages were pre-treated with vehicle (DMSO), BN-80933, SUL-138, or SUL-150 or (all 10 μM) prior to endotoxin (LPS 100 ng/ml) exposure for 24 hours. The nitrate levels in the conditioned medium from LPS exposed RAW264.7 macrophages averaged at 83 pmol/mg protein (˜16-fold increase versus non-exposed RAW264.7 cells, p=0.001).

With `Cc1c(C)c2c(c(C)c1O)CC[C@@](C)(C(=O)N1CCN(CCO)CC1)O2` [SUL-138, (S)-(6-hydroxy-2,5,7,8-tetramethylchroman-2-yl)(4-(2-hydroxyethyl)piperazin-1-yl)methanone], in assay [1], the “Serum NGAL level” value is “not different from Sham operated animals” and the Serum urea level result is “not different from Sham operated animals”. In addition, the “uncoupled respiration (CCCP)” value in assay [2] is “almost restores the uncoupled respiration”. For the same compound, the “inhibition of LPS-induced mRNA expression of TNFα” value in assay [3] is 81.4 ± 4.5 %. In assay [4] (10 μM pre-treatment, LPS 100 ng/ml for 24 hours), the “LPS-induced increase in extracellular nitrate level” value is “Neither SUL-138 nor SUL-150 strongly suppressed the LPS-induced increase in nitrate production”. Further, the “basal production of extracellular nitrate” value in assay [4] (no LPS, 10 μM) is given as “Neither BN-80933, SUL-138, nor SUL-150 affected the basal production of extracellular nitrate”.
